Experimental data taken from patent US10143731B2, “Peptides and combination of peptides for use in immunotherapy against various cancers” (immatics biotechnologies GmbH, priority 2015, dated 2018).

Key:
[1] = system: HLA-A*02; assay: MHC binding assay by UV-ligand exchange and beta2m ELISA, HLA-A*02; set-up: species or system human; conditions: binding to HLA-A*02 ranged by peptide exchange yield (UV-ligand exchange, β2m ELISA)
Excerpt: (§1) MHC Binding Assays Candidate peptides for T cell based therapies according to the present invention were further tested for their MHC binding capacity (affinity). The individual peptide-MHC complexes were produced by UV-ligand exchange, where a UV-sensitive peptide is cleaved upon UV-irradiation, and exchanged with the peptide of interest as analyzed. Only peptide candidates that can effectively bind and stabilize the peptide-receptive MHC molecules prevent dissociation of the MHC complexes. To determine the yield of the exchange reaction, an ELISA was performed based on the detection of the light chain (β2m) of stabilized MHC complexes. The assay was performed as generally described in Rodenko et al. (Rodenko et al., 2006).
(§2) 96 well MAXISorp plates (NUNC) were coated over night with 2 ug/ml streptavidin in PBS at room temperature, washed 4× and blocked for 1 h at 37° C. in 2% BSA containing blocking buffer. Refolded HLA-A*02:01/MLA-001 monomers served as standards, covering the range of 15-500 ng/ml. Peptide-MHC monomers of the UV-exchange reaction were diluted 100 fold in blocking buffer. Samples were incubated for 1 h at 37° C., washed four times, incubated with 2 ug/ml HRP conjugated anti-β2m for 1 h at 37° C., washed again and detected with TMB solution that is stopped with […]. Absorption was measured at 450 nm. Candidate peptides that show a high exchange yield (preferably higher than 50%, most preferred higher than 75%) are generally preferred for a generation and production of antibodies or fragments thereof, and/or T cell receptors or fragments thereof, as they show sufficient avidity to the MHC molecules and prevent dissociation of the MHC complexes.

[2] = system: CD8+ T cells; assay: In vitro T-cell priming assay (aAPCs loaded with peptide/MHC and anti-CD28, multimer staining readout); type: cell-based, human; conditions: for Wells positive [%]: in vitro immunogenicity of HLA class I peptides; for Wells (in vitro immunogenicity of HLA class I peptides): CD8+ T cells of healthy donors, three stimulation cycles with peptide/MHC and anti-CD28 coated beads
Description: In an aspect, the peptides are pre-screened for immunogenicity before being included in the warehouse. By way of example, and not limitation, the immunogenicity of the peptides included in the warehouse is determined by a method comprising in vitro T-cell priming through repeated stimulations of CD8+ T cells from healthy donors with artificial antigen presenting cells loaded with peptide/MHC complexes and anti-CD28 antibody.
In order to obtain information regarding the immunogenicity of the TUMAPs of the present invention, the inventors performed investigations using an in vitro T-cell priming assay based on repeated stimulations of CD8+ T cells with artificial antigen presenting cells (aAPCs) loaded with peptide/MHC complexes and anti-CD28 antibody.
In order to perform in vitro stimulations by artificial antigen presenting cells loaded with peptide-MHC complex (pMHC) and anti-CD28 antibody, the inventors first isolated CD8+ T cells from fresh HLA-A*02 leukapheresis products via positive selection using CD8 microbeads (Miltenyi Biotec, Bergisch-Gladbach, Germany) of healthy donors obtained from the University clinics Mannheim, Germany, after informed consent.
PBMCs and isolated CD8+ lymphocytes were incubated in T-cell medium (TCM) until use consisting of RPMI-Glutamax (Invitrogen, Karlsruhe, Germany) supplemented with 10% heat inactivated human AB serum (PAN-Biotech, Aidenbach, Germany), 100 U/ml Penicillin/100 μg/ml Streptomycin (Cambrex, Cologne, Germany), 1 mM sodium pyruvate (CC Pro, Oberdorla, Germany), 20 μg/ml Gentamycin (Cambrex). 2.5 ng/ml IL7 (PromoCell, Heidelberg, Germany) and 10 U/ml IL-2 (Novartis Pharma, Nürnberg, Germany) were also added to the TCM at this step.
Generation of pMHC/anti-CD28 coated beads, T-cell stimulations and readout was performed in a highly defined in vitro system using four different pMHC molecules per stimulation condition and 8 different pMHC molecules per readout condition.
The purified co-stimulatory mouse IgG2a anti human CD28 Ab 9.3 (Jung et al., 1987) was chemically biotinylated using Sulfo-N-hydroxysuccinimidobiotin as recommended by the manufacturer (Perbio, Bonn, Germany). Beads used were 5.6 μm diameter streptavidin coated polystyrene particles (Bangs Laboratories, Illinois, USA).
pMHC used for positive and negative control stimulations were A*0201/MLA-001 (peptide […] (SEQ ID NO. 303) from modified Melan-A/MART-1) and A*0201/DDX5-001 ([…] from DDX5, SEQ ID NO. 304), respectively.
800.000 beads/200 μl were coated in 96-well plates in the presence of 4×12.5 ng different biotin-pMHC, washed and 600 ng biotin anti-CD28 were added subsequently in a volume of 200 μl. Stimulations were initiated in 96-well plates by co-incubating 1×10^6 CD8+ T cells with 2×10^5 washed coated beads in 200 μl TCM supplemented with 5 ng/ml IL-12 (PromoCell) for 3 days at 37° C. Half of the medium was then exchanged by fresh TCM supplemented with 80 U/ml IL-2 and incubating was continued for 4 days at 37° C. This stimulation cycle was performed for a total of three times. For the pMHC multimer readout using 8 different pMHC molecules per condition, a two-dimensional combinatorial coding approach was used as previously described (Andersen et al., 2012) with minor modifications encompassing coupling to 5 different fluorochromes. Finally, multimeric analyses were performed by staining the cells with Live/dead near IR dye (Invitrogen, Karlsruhe, Germany), CD8-FITC antibody clone SK1 (BD, Heidelberg, Germany) and fluorescent pMHC multimers. For analysis, a BD LSRII SORP cytometer equipped with appropriate lasers and filters was used. Peptide specific cells were calculated as percentage of total CD8+ cells. Evaluation of multimeric analysis was done using the FlowJo software (Tree Star, Oregon, USA). In vitro priming of specific multimer+CD8+ lymphocytes was detected by comparing to negative control stimulations.

[3] = system: HLA-A*24; assay: MHC binding assay by UV-ligand exchange and beta2m ELISA, HLA-A*24; set-up: species or system human; conditions: binding to HLA-A*24 ranged by peptide exchange yield (UV-ligand exchange, β2m ELISA)
Excerpt: as §1, §2

[4] = system: advanced non-resectable HCC; conditions: patients with advanced non-resectable HCC; cited from earlier work
[5] = target: HLA-A2 (Homo sapiens, UniProt P04439, D140Y/D185E/D98H/E176V/E277Q/G131W/G231S/I119V/I121R/I166T/I218V/L10V/L300P/L318F/N151K/N90K/P208A/P217A/Q86G/Q94H/R138H/R169H/T345S); conditions: prediction in US20150306197 A1 / US20110142842 A1, not tested further; cited from earlier work

| Compound | Peptide exchange [1] | also measured |
| --- | --- | --- |
| 12 (GLLPLLHRA; listed as Homo sapiens) [compound 12] | ++++ (> = 75% = ++++) | Wells positive [%] [2]: ++++ (> = 70% = ++++) |
| 14 (ILAKDLFEI; listed as Homo sapiens) [compound 14] | ++++ (> = 75% = ++++) | – |
| 95 (GLLGSLFFL; listed as Homo sapiens) [compound 95] | ++++ (> = 75% = ++++) | – |
| 112 (SLGKFTFDV; listed as Homo sapiens) [compound 112] | ++++ (> = 75% = ++++) | – |
| 125 (SLADYEHFV; listed as Homo sapiens) [compound 125] | ++++ (> = 75% = ++++) | – |
| 126 (QMFQYFITV; listed as Homo sapiens) [compound 126] | ++++ (> = 75% = ++++) | – |
| 129 (RLQDILWFL; listed as Homo sapiens) [compound 129] | ++++ (> = 75% = ++++) | – |
| 147 (YLMDDTVEI; listed as Homo sapiens) [compound 147] | ++++ (> = 75% = ++++) | – |
| 158 (HYSQELSLLYL; listed as Homo sapiens) [compound 158] | – | Wells positive [%] [2]: + (<20% = +); Peptide exchange [3]: ++++ (> = 75% = ++++) |
| 159 (LYNKGFIYL; listed as Homo sapiens) [compound 159] | – | Wells positive [%] [2]: ++++ (> = 70% = ++++); Peptide exchange [3]: ++++ (> = 75% = ++++) |
| 163 (DYLKGLASF; listed as Homo sapiens) [compound 163] | – | Wells positive [%] [2]: + (<20% = +); Peptide exchange [3]: ++++ (> = 75% = ++++) |
| 165 (DYTTWTALL; listed as Homo sapiens) [compound 165] | – | Wells positive [%] [2]: + (<20% = +); Peptide exchange [3]: ++++ (> = 75% = ++++) |
| 167 (NYINRILKL; listed as Homo sapiens) [compound 167] | – | Wells positive [%] [2]: + (<20% = +); Peptide exchange [3]: ++++ (> = 75% = ++++) |
| 204 (TYELRYFQI; listed as Homo sapiens) [compound 204] | – | Wells positive [%] [2]: + (<20% = +); Peptide exchange [3]: ++++ (> = 75% = ++++) |
| 229 (AILAHLNTV; listed as Homo sapiens) [compound 229] | ++++ (> = 75% = ++++) | – |
| 248 (YLDRFLAGV; listed as Homo sapiens) [compound 248] | ++++ (> = 75% = ++++) | – |
| 291 (KLDETGNSL; listed as Homo sapiens) [compound 291] | – | Wells (in vitro immunogenicity of HLA class I peptides) [2]: + (<20% = +) |
| 292 (GMMTAILGV; listed as Homo sapiens) [compound 292] | – | Wells (in vitro immunogenicity of HLA class I peptides) [2]: + (<20% = +) |
| 293 (FLVDGSWSI; listed as Homo sapiens) [compound 293] | – | Wells (in vitro immunogenicity of HLA class I peptides) [2]: + (<20% = +) |
| 296 (TYVDSSHTI; listed as Homo sapiens) [compound 296] | – | Wells (in vitro immunogenicity of HLA class I peptides) [2]: + (<20% = +) |
| 298 (RYLEGTSCI; listed as Homo sapiens) [compound 298] | – | Wells (in vitro immunogenicity of HLA class I peptides) [2]: + (<20% = +) |
| 300 (AYVLRLETL; listed as Homo sapiens) [compound 300] | – | Wells (in vitro immunogenicity of HLA class I peptides) [2]: + (<20% = +) |
| 301 (AYKPGALTF; listed as Homo sapiens) [compound 301] | – | Wells (in vitro immunogenicity of HLA class I peptides) [2]: + (<20% = +) |
| CNC(=O)c1cc(Oc2ccc(NC(=O)Nc3ccc(Cl)c(C(F)(F)F)c3)cc2)ccn1 [Sorafenib] | – | increase of survival [4]: about 3 months |
| KLFTSVFGV (listed as Homo sapiens) [SEQ ID No. 305] | – | predicted binding to HLA-A2 / HLA-A*0201 [5]: binding to HLA-A*0201 |

More lines, main results first:

| Peptide exchange [1] | Compound | also measured |
| --- | --- | --- |
| ++++ (> = 75% = ++++) | 1 (LLYPEPWSV; listed as Homo sapiens) [compound 1] | – |
| ++++ (> = 75% = ++++) | 3 (KLEENGDLYL; listed as Homo sapiens) [compound 3] | – |
| ++++ (> = 75% = ++++) | 4 (KLMPGTYTL; listed as Homo sapiens) [compound 4] | Wells positive [%] [2]: + (<20% = +) |
| ++++ (> = 75% = ++++) | 16 (YTLDIPVLFGV; listed as Homo sapiens) [compound 16] | – |
| ++++ (> = 75% = ++++) | 34 (FLLATEVVTV; listed as Homo sapiens) [compound 34] | – |
| ++++ (> = 75% = ++++) | 51 (LLFSRLCGA; listed as Homo sapiens) [compound 51] | – |
| ++++ (> = 75% = ++++) | 84 (ALCPRIHEV; listed as Homo sapiens) [compound 84] | – |
| ++++ (> = 75% = ++++) | 92 (GLLFSLRSV; listed as Homo sapiens) [compound 92] | – |
| ++++ (> = 75% = ++++) | 133 (ALLPRLHQL; listed as Homo sapiens) [compound 133] | – |
| ++++ (> = 75% = ++++) | 153 (FISERVEVV; listed as Homo sapiens) [compound 153] | – |
| ++++ (> = 75% = ++++) | 245 (SLLDLPLSL; listed as Homo sapiens) [compound 245] | – |
| ++++ (> = 75% = ++++) | 249 (GLCERLVSL; listed as Homo sapiens) [compound 249] | Wells positive [%] [2]: + (<20% = +) |
| ++++ (> = 75% = ++++) | 257 (GLYTDPCGV; listed as Homo sapiens) [compound 257] | – |
| ++++ (> = 75% = ++++) | 258 (LLSERFINV; listed as Homo sapiens) [compound 258] | – |
